# According to patent publication US20070232681A1, “Compounds Having Crth2 Antagonist Activity” (Oxagen Limited, priority 2003, published 2007):
# Experiments:
# CRTH2 [1] = target: T1, CRTH2 (Homo sapiens, UniProt Q9Y5Y4); experiment: [3H]PGD2 radioligand binding on CHO/CRTH2 cell membranes; details: competition versus [3H]PGD2, CHO/CRTH2 membranes
# T1 construct: expressed in transfected cells; host or cells: Chinese Hamster Ovary (CHO) cells, G418 selected
# T1 sequence (Q9Y5Y4 1-395): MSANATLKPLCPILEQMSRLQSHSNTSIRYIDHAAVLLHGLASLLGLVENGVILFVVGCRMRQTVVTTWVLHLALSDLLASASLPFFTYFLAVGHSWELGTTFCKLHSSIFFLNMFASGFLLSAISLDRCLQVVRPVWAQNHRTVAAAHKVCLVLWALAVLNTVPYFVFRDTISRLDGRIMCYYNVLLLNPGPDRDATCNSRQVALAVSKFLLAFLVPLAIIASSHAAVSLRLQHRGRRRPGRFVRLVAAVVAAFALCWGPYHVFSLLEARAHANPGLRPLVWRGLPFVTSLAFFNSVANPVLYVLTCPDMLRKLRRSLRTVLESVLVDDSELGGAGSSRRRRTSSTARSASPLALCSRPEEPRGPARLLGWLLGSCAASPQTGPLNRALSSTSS
# Procedure: (§1) Chinese Hamster Ovary cells were transfected with CRTH2 or DP receptors (CHO/CRTH2 and CHO/DP) and were maintained in culture in a humidified atmosphere at 37° C. (5% CO2) in Minimum Essential Medium (MEM) supplemented with 10% foetal bovine serum, 2 mM glutamine, and 1 mg ml^−1 active G418. The cells were passaged every 2-3 days. For radioligand binding assay, cells were prepared in triple-layer flasks or in 175 cm^2 square flasks (for membrane preparation). For calcium mobilisation assay, cells were grown in a 96 well plate 24 h prior to the assay at a density of 80,000 cells per well.
# (§2) Membranes were prepared either from CHO/CRTH2 and CHO/DP cells, or from platelets (as a source of TP receptors). CHO cells grown to confluency were washed with PBS and detached using a Versene solution (15 ml per flask). When the cells were grown in 175 cm^2 square flask, they were collected by scrapping in PBS. The cell suspensions were centrifuged (1,700 rpm, 10 min, 4° C.) and resuspended in 15 ml of buffer (1×HBSS, supplemented with 10 mM HEPES, pH 7.3). Cell suspensions were then homogenised using an Ultra Turrax at setting 4-6 for 20 s. The homogenate was centrifuged at 1,700 rpm for 10 min and the supernatant was collected and centrifuged at 20,000 rpm for 1 h at 4° C. The resulting pellet was resuspended in buffer and stored at −80° C. in aliquots of 200-500 μl. The protein concentration was determined by the method of Bradford (1976), using bovine serum albumin as standard. The platelets were washed by centrifugation at 600×g for 10 min and resuspended in ice-cold assay buffer (10 mM Tris-HCl, pH 7.4, 5 mM Glucose, 120 mM NaCl, 10 μM indomethacin) and directly centrifuged at 20,000 rpm for 30 min at 4° C. The resulting pellet was treated as described above.
# (§3) [3H]PGD2 (160 Ci/mmol) binding experiments were performed on membranes prepared as described above. Assays were performed in a final volume of 100 μl of buffer (1×HBSS/HEPES 10 mM, pH 7.3). Cell membranes (15 μg). Cell membranes […] were preincubated at room temperature with varying concentration of competing ligand for 15 min. [3H]PGD2 ([…]) was then added and the incubation continued for a further one hour at room temperature. The reaction was terminated by the addition of 200 μl ice-cold assay buffer to each well, followed by rapid filtration through Whatman GF/B glass fibre filters using a Unifilter Cell harvester (PerkinElmer Life Sciences) and six washes of 300 μl of ice-cold buffer. The Unifilter plates were dried at room temperature for at least 1 h and the radioactivity retained on the filters was determined on a Beta Trilux counter (PerkinElmer Life Sciences), following addition of 40 μl of Optiphase Hi-Safe 3 (Wallac) liquid scintillation. Non specific binding was defined in the presence of […] unlabelled PGD2. Assays were performed in duplicate.
# DP receptor = target: T2, DP receptor (Homo sapiens, UniProt Q13258); experiment: [3H]PGD2 radioligand binding on CHO/DP cell membranes; details: competition versus [3H]PGD2, CHO/DP membranes
# T2 construct: expressed in transfected cells; host or cells: Chinese Hamster Ovary (CHO) cells, G418 selected
# T2 sequence (Q13258 1-359): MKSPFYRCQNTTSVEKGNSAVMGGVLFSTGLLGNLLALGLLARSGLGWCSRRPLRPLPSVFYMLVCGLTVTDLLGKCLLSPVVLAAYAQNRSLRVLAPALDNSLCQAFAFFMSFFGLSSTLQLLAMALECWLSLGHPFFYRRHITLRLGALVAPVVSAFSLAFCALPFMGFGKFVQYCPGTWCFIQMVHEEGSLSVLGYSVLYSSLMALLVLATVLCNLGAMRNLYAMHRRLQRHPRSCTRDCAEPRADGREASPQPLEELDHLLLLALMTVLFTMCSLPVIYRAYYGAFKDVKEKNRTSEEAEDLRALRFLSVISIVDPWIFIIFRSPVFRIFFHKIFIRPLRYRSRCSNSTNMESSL
# Procedure: as §1, §2, §3
# CRTH2 [2] = target: T1, CRTH2; experiment: Calcium mobilisation assay in CHO/CRTH2 cells (PGD2-induced calcium flux); type: cell-based; details: for IC50: inhibition of PGD2-induced calcium flux, read-out: CRTH2 Ca flux IC50
# Procedure: as §1
# Cells were seeded onto poly-D-lysine coated 96-well plates at a density of 80,000 cells per well and incubated at 37° C. overnight to allow the cells to adhere. Cells were washed twice with HBSS and incubated for 1 h at 37° C. in 100 μl HBSS and 100 μl calcium-3-dye (Molecular Devices) solution, supplemented with 4 mM probenecid. Changes in fluorescence were monitored over a 50 s time course with agonist addition at 17s using a Flexstation (Molecular Devices).
Ki (CRTH2 [1]),Ki (DP receptor),IC50 (CRTH2 [2]),Compound,"EC50 (CRTH2 [2]; agonist, n=3, read-out: EC50 for increase in intracellular Ca2+ mobilisation)"
192 nM,> 10000 nM,280 nM,"CCCCS(=O)(=O)c1c(C)n(CC(=O)O)c2ccc(F)cc12 [Compound 1, [3-(Butane-1-sulfonyl)-5-fluoro-2-methyl-indol-1-yl]-acetic acid]",–
75 nM,> 10000 nM,163 nM,Cc1c(S(=O)(=O)c2ccc(-c3ccccc3)cc2)c2cc(F)ccc2n1CC(=O)O [Compound 2],–
2000 nM,–,–,"Cc1c(S(=O)(=O)CC(=O)O)c2cc(F)ccc2n1CC(=O)O [Compound 3, (3-Carboxymethanesulfonyl-5-fluoro-2-methyl-indol-1-yl)-acetic acid]",–
2300 nM,–,–,"Cc1c(S(=O)(=O)CC(N)=O)c2cc(F)ccc2n1CC(=O)O [Compound 4, (3-Carbamoylmethanesulfonyl-5-fluoro-2-methyl-indol-1-yl)-acetic acid]",–
89 nM,> 10000 nM,268 nM,"Cc1c(S(=O)(=O)CCS(C)(=O)=O)c2cc(F)ccc2n1CC(=O)O [Compound 5, [5-Fluoro-3-(2-methanesulfonyl-ethanesulfonyl)-2-methyl-indol-1-yl]-acetic acid]",–
209 nM,–,345 nM,"Cc1c(S(=O)(=O)c2nc3ccccc3s2)c2cc(F)ccc2n1CC(=O)O [Compound 6, [3-(Benzothiazole-2-sulfonyl)-5-fluoro-2-methyl-indol-1-yl]-acetic acid]",–
54 nM,–,163 nM,"Cc1c([S+]([O-])c2nc3ccccc3s2)c2cc(F)ccc2n1CC(=O)O (stereo not shown) [Compound 7, [3-(Benzothiazole-2-sulfinyl)-5-fluoro-2-methyl-indol-1-yl]-acetic acid]",–
249 nM,–,330 nM,"Cc1c(S(=O)(=O)c2ccc3ccccc3n2)c2cc(F)ccc2n1CC(=O)O [Compound 8, [5-Fluoro-2-methyl-3-(quinoline-2-sulfonyl)-indol-1-yl]-acetic acid]",–
254 nM,> 10000 nM,–,"Cc1c(S(=O)(=O)c2cccc3cccnc23)c2cc(F)ccc2n1CC(=O)O [Compound 9, [5-Fluoro-2-methyl-3-(quinolin-8-ylsulfonyl)-indol-1-yl]-acetic acid]",–
6 nM,–,79 nM,"Cc1c(S(=O)(=O)Cc2ccccc2)c2cc(F)ccc2n1CC(=O)O [Compound 10, (5-Fluoro-2-methyl-3-phenylmethanesulfonyl-1H-indol-1-yl)-acetic acid]",–
51 nM,> 10000 nM,197 nM,"Cc1c(S(=O)(=O)Nc2ccc(Cl)cc2)c2cc(F)ccc2n1CC(=O)O [Compound 11, [3-(4-Chloro-phenylsulfamoyl)-5-fluoro-2-methyl-indol-1-yl]-acetic acid]",–
45 nM,> 10000 nM,82 nM,"Cc1c(S(=O)(=O)Nc2cccc(Cl)c2)c2cc(F)ccc2n1CC(=O)O [Compound 12, [3-(3-Chloro-phenylsulfamoyl)-5-fluoro-2-methyl-indol-1-yl]-acetic acid]",–
182 nM,–,1650 nM,"Cc1c(S(=O)(=O)Nc2ccc(F)cc2)c2cc(F)ccc2n1CC(=O)O [Compound 13, [3-(4-Fluoro-phenylsulfamoyl)-5-fluoro-2-methyl-indol-1-yl]-acetic acid]",–
225 nM,–,390 nM,"Cc1c(S(=O)(=O)Nc2ccccc2Cl)c2cc(F)ccc2n1CC(=O)O [Compound 14, [3-(2-Chloro-phenylsulfamoyl)-5-fluoro-2-methyl-indol-1-yl]-acetic acid]",–
278 nM,> 10000 nM,–,"Cc1c(S(=O)(=O)NCc2ccccc2)c2cc(F)ccc2n1CC(=O)O [Compound 15, (3-Benzylsulfamoyl-5-fluoro-2-methyl-indol-1-yl)-acetic acid]",–
771 nM,> 10000 nM,–,"COc1ccccc1NS(=O)(=O)c1c(C)n(CC(=O)O)c2ccc(F)cc12 [Compound 16, [5-Fluoro-3-(2-methoxy-phenylsulfamoyl)-2-methyl-indol-1-yl]-acetic acid]",–
1450 nM,> 10000 nM,–,"COc1ccc(NS(=O)(=O)c2c(C)n(CC(=O)O)c3ccc(F)cc23)cc1 [Compound 17, [5-Fluoro-3-(4-methoxy-phenylsulfamoyl)-2-methyl-indol-1-yl]-acetic acid]",–
236 nM,> 10000 nM,–,"Cc1c(S(=O)(=O)Nc2ccccc2)c2cc(F)ccc2n1CC(=O)O [Compound 18, (5-Fluoro-2-methyl-3-phenylsulfamoyl-indol-1-yl)-acetic acid]",–
181 nM,> 10000 nM,–,"Cc1c(S(=O)(=O)NCc2ccc(Cl)c(Cl)c2)c2cc(F)ccc2n1CC(=O)O [Compound 19, [3-(3,4-Dichloro-benzylsulfamoyl)-5-fluoro-2-methyl-indol-1-yl]-acetic acid]",–
531 nM,> 10000 nM,–,"COc1cccc(NS(=O)(=O)c2c(C)n(CC(=O)O)c3ccc(F)cc23)c1 [Compound 20, [5-Fluoro-3-(3-methoxy-phenylsulfamoyl)-2-methyl-indol-1-yl]-acetic acid]",–
176 nM,> 10000 nM,1060 nM,"Cc1cccc(NS(=O)(=O)c2c(C)n(CC(=O)O)c3ccc(F)cc23)c1 [Compound 21, (5-Fluoro-2-methyl-3-m-tolylsulfamoyl-indol-1-yl)-acetic acid]",–
1240 nM,> 10000 nM,–,"Cc1ccc(NS(=O)(=O)c2c(C)n(CC(=O)O)c3ccc(F)cc23)cc1 [Compound 22, (5-Fluoro-2-methyl-3-p-tolylsulfamoyl-indol-1-yl)-acetic acid]",–
164 nM,> 10000 nM,–,"Cc1c(S(=O)(=O)NCc2ccc(Cl)cc2)c2cc(F)ccc2n1CC(=O)O [Compound 23, [3-(4-Chloro-benzylsulfamoyl)-5-fluoro-2-methyl-indol-1-yl]-acetic acid]",–
119 nM,> 10000 nM,–,"Cc1c(S(=O)(=O)N(C)Cc2ccccc2)c2cc(F)ccc2n1CC(=O)O [Compound 24, [3-(Benzyl-methyl-sulfamoyl)-5-fluoro-2-methyl-indol-1-yl]-acetic acid]",–
4250 nM,> 10000 nM,–,"Cc1c(S(=O)(=O)Nc2cccnc2)c2cc(F)ccc2n1CC(=O)O [Compound 25, [5-Fluoro-2-methyl-3-(pyridin-3-ylsulfamoyl)-indol-1-yl]-acetic acid]",–
–,–,–,"CCCCC[C@H](O)/C=C/[C@H]1C(=O)C[C@H](O)[C@@H]1C/C=C\CCCC(=O)O [PGD2, prostaglandin D2, reference compound]",2.4 nM
